From patent publication US20180193294A1, “Dehydroabietic acid (DHAA) derivatives for use as ion channel openers” (priority 2015, published 2018) come the findings set out here.

This experiment concerns the target 3R Shaker K channel (Drosophila melanogaster, UniProt P08510, A359R/M356R). Description: physchem. The following applies: 100 μM; for effect on G(V) shift / current compared with DHAA: C7-modified DHAA; for G(V) shift: Table 1; for relative current amplitude: representative traces at voltage giving 10% of maximum conductance in control. It is filed as cell-based. The text has this:
A 3R Shaker K channel is a modified Shaker K channel where residues 356 and 359 are mutated to arginines.
All animal experiments were approved by the local Animal Care and Use Committee and followed international guidelines. A modified Shaker H4 channel^30, with removed N-type inactivation (ShH4IR)^31, here called the wild type (WT) channel, was expressed in oocytes. In addition, a modified 3R Shaker K channel where two introduced positive charged arginines (M356R and A359R) in addition to one native arginine (R362) makes the channel more sensitive to DHA^16, was expressed in oocytes and in a CHO—K1 stable cell line.
African clawed frogs (Xenopus laevis) were anesthetized with 1.4 g/L ethyl 3-aminobenzoate methanesulfonate salt (tricaine). After an incision through the abdomen a batch of oocytes were removed. Clusters of oocytes were separated by incubation for ˜1 h in a Ca-free O—R2 solution (in mM: 82.5 NaCl, 2 KCl, 5 HEPES, and 1 MgCl2; pH adjusted to 7.4 by NaOH) containing Liberase Blendzyme. The oocytes were then incubated at 8° C. in a modified Barth's solution (MBS; in mM: 88 NaCl, 1 KCl, 2.4 NaHCO3, 15 HEPES, 0.33 Ca(NO3)2, 0.41 CaCl2, and 0.82 MgSO4; pH adjusted to 7.6 by NaOH) supplemented with penicillin (25 U/ml), streptomycin (25 μg/ml), and sodium pyruvate (2.5 mM) 2-24 hours before injection. Fifty nl of cRNA (50 pg) were injected into each oocyte using a Nanoject injector (Drummond Scientific, Broomall, Pa.). Injected oocytes were kept at 8° C. in MBS until one day before electrophysiological recordings, when they were incubated at 16° C. All chemicals were supplied from Sigma-Aldrich (Stockholm, Sweden) if not stated otherwise.
All manual electrophysiological recordings were performed at room temperature (20-23° C.), using a GeneClamp 500B amplifier (for oocytes) or a Axopatch 200B amplifier (for manual patch clamp of CHO—K1 cells and DRG neurons) and a Digidata 1440A digitizer and pClamp 10 software (all from Molecular Devices, Inc., Sunnyvale, Calif., USA). Compounds were dissolved to 100 mM in 99.5% EtOH and stored at −20° C. Compounds were diluted in extracellular solution to the desired test concentration.
The oocyte was placed in a bath surrounded by 1K extracellular solution that contained (in mM): 88 NaCl, 1 KCl, 15 HEPES, 0.4 CaCl2, and 0.8 MgCl2, pH adjusted to 7.4 by NaOH (reaching a sodium concentration of ˜100 mM). Control solution was added to the bath with a gravity driven perfusion system. Compound solution was added to the bath manually with a syringe. Two glass microelectrodes were inserted into the oocyte using micromanipulators. […] All channels were closed when the potential was clamped to −80 mV and this voltage was set as the holding potential. Currents were evoked from the holding potential of −80 mV by 100-ms long, 5-mV steps ranging from −80 up to +50 mV (WT) and +70 mV (3R).
Conductance GK(V) was calculated as GK(V)=[…], (Eq. 1) where IK is the average current from the steady-state phase at the end of each 100-ms pulse, V is the membrane voltage, and Vrev is the reversal potential for K^+, (set to −80 mV for the oocytes, and calculated to be −89 mV for the CHO—K1 cells).
G(V)=A/(1+exp((V1/2−V)/s))^n (Eq. 2) where A is amplitude of the curve, V is the absolute membrane voltage, V1/2 is the midpoint, s is the slope and n is an exponent set to 4^17. The compound-induced G(V) shift was determined at the 10% level of the maximum conductance in control solution^17. The compound-induced G(V) shift in CHO—K1 was quantified by subtracting the control V1/2 from the compound V1/2 when n was set to 1.
Data for concentration and pH dependent G(V) shifts (ΔV) in oocytes were fit with a dose-response equation ΔV=ΔVmax/(1+c1/2/c), (Eq. 3) where Δvmax is the maximal shift, c1/2 is half maximal effective concentration/pKa value and c is the concentration.

Chain of 3R Shaker K channel (P08510 whole entry M356R/A359R): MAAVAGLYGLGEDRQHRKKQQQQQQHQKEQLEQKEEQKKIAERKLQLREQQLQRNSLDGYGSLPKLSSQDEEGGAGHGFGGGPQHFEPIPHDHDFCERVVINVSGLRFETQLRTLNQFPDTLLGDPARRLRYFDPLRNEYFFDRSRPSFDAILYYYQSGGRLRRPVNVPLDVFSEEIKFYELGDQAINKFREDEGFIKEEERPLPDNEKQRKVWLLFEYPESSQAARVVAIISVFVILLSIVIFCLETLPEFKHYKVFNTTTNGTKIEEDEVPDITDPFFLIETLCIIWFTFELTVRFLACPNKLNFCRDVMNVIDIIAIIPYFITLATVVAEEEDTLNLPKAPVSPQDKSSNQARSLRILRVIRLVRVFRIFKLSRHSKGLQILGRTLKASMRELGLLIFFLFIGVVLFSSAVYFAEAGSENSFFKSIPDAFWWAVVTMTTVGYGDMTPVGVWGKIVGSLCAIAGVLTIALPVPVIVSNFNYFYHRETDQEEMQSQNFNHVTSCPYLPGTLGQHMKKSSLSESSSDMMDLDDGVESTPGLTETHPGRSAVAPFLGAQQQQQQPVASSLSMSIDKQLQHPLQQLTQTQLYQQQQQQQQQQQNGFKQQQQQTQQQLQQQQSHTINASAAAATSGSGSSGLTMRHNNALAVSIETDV

For the compound `CC(C)c1ccc2c(c1)C(=NO)CC1C(C)(C(=O)O)CCCC21C` (stereo not drawn) [Wu31], the “effect on G(V) shift / current compared with DHAA” value (shortened to “effect on G(V) shift / current”) (pH 7.4) is “clearly reduced the current increase”. Besides, the “G(V) shift” value (pH 7.4, Xenopus oocytes) is listed as −3.0 mV.
Turning to `C=CCO/N=C1\CC2[C@](C)(C(=O)O)CCC[C@]2(C)c2cc(Br)c(C(C)C)cc21` (stereo partly drawn) [Wu33, (1R,4aS,E)-6-bromo-9-((allyloxy)imino)-7-isopropyl-1,4a-dimethyl-1,2,3,4,4a,9,10,10a-octahydrophenanthrene-1-carboxylic acid], the “G(V) shift” value (pH 7.4, Xenopus oocytes) is recorded as −24.5 mV.
Same read-out and setting: the value for `CC(C)c1cc2c(cc1Br)C1(C)CCCC(C)(C(=O)O)C1CC2=NOCc1ccccc1` (stereo not drawn) [Wu34] was −6.6 mV.
For the compound `CON=C1C[C@H]2[C@](C)(C(=O)O)CCC[C@]2(C)c2ccc(C(C)C)cc21` [Wu36], where the note is “pH 7.4”, the “increase in G(V) shift relative to DHAA (ΔVc7, ΔVhalo, ΔVtot)” value is −2.7 mV; the “effect on G(V) shift / current” value is on record as “no significantly different effects compared to DHAA”; the relative current amplitude is on record as 4.4 times. Where the note is “pH 7.4, Xenopus oocytes”, the “compound-induced G(V) shift (mean±SEM)” value is listed as −14.8 mV and the “G(V) shift” value is on record as −14.8 mV.
On to `CC(C)c1c(Cl)cc2c(c1Cl)C(=O)CC1C(C)(C(=O)O)CCCC21C` (stereo not drawn) [Wu37], for which the “G(V) shift” value (pH 7.4, Xenopus oocytes) is given as −11.1 mV.
Take `COC1CC2[C@](C)(C(=O)O)CCC[C@]2(C)c2ccc(C(C)C)cc21` (stereo partly drawn) [Wu39]: under “pH 7.4”, the “effect on G(V) shift / current” value is “clearly reduced the current increase” and the relative current amplitude is on record as 2.6 times. Besides, the “G(V) shift” value (pH 7.4, Xenopus oocytes) is on record as −7.3 mV.
Regarding `C=CCON=C1CC2C(C)(C(=O)O)CCCC2(C)c2cc(Cl)c(C(C)C)c(Cl)c21` (stereo not drawn) [Wu40], the “G(V) shift” value (pH 7.4, Xenopus oocytes) is −13.4 mV.
As to `CON=C1C[C@H]2[C@](C)(C(=O)O)CCC[C@]2(C)c2cc(Cl)c(C(C)C)c(Cl)c21` [Wu41, (1R,4aS,10aR)-6,8-dichloro-7-isopropyl-9-(methoxyimino)-1,4a-dimethyl-1,2,3,4,4a,9,10,10a-octahydrophenanthrene-1-carboxylic acid], the “G(V) shift” value (pH 7.4, Xenopus oocytes) is reported as −22.1 mV.
Same read-out and setting: as for `CC(C)c1c(Cl)cc2c(c1Cl)C(=NO)CC1C(C)(C(=O)O)CCCC21C` (stereo not drawn) [Wu42], the figure is −6.1 mV.
Same read-out and setting: the value for `CC(C)c1c(Cl)cc2c(c1Cl)C(=NOCc1ccccc1)CC1C(C)(C(=O)O)CCCC21C` (stereo not drawn) [Wu43] was −4.2 mV.
On the same count and under the same terms, as for `CC(C)c1c(Cl)c(Cl)c2c(c1Cl)CCC1C(C)(C(=O)O)CCCC21C` (stereo not drawn) [Wu45], the figure is −3.9 mV.
Regarding `CC(C)c1c(Cl)c(Cl)c2c(c1Cl)C(=O)CC1[C@](C)(C(=O)O)CCC[C@]21C` (stereo partly drawn) [Wu46], the “G(V) shift” value (pH 7.4, Xenopus oocytes) is recorded as −2.5 mV.
Take `CON=C1CC2C(C)(C(=O)O)CCCC2(C)c2c(Cl)c(Cl)c(C(C)C)c(Cl)c21` (stereo not drawn) [Wu47]: for the setting “pH 7.4, Xenopus oocytes”, the “G(V) shift” value is on record as −13.4 mV.
The same measure, in the same setting: the value for `CC(C)c1c(Cl)c(Cl)c2c(c1Cl)C(=NO)CC1C(C)(C(=O)O)CCCC21C` (stereo not drawn) [Wu48] was 4.7 mV; that for `C=CCON=C1CC2C(C)(C(=O)O)CCCC2(C)c2c(Cl)c(Cl)c(C(C)C)c(Cl)c21` (stereo not drawn) [Wu49] was −7.3 mV; that for `CC(C)c1c(Cl)c(Cl)c2c(c1Cl)C(=NOCc1ccccc1)CC1C(C)(C(=O)O)CCCC21C` (stereo not drawn) [Wu51] was −1.9 mV.
In the case of `C=CCO/N=C1\CC2[C@](C)(C(=O)O)CCC[C@]2(C)c2cc(F)c(C(C)C)cc21` (stereo partly drawn) [Wu52, (1R,4aS,E)-9-((allyloxy)imino)-6-fluoro-7-isopropyl-1,4a-dimethyl-1,2,3,4,4a,9,10,10a-octahydrophenanthrene-1-carboxylic acid], under “pH 7.4, Xenopus oocytes”, the “G(V) shift” value was −20.2 mV.
Same read-out and setting: as for `C=CCON=C1CC2C(C)(C(=O)O)CCCC2(C)c2ccc(C(C)C)c(F)c21` (stereo not drawn) [Wu53], the figure is −9.2 mV; as for `CON=C1CC2C(C)(C(=O)O)CCCC2(C)c2ccc(C(C)C)c(F)c21` (stereo not drawn) [Wu54], −9.0 mV; as for `CO/N=C1\CC2[C@](C)(C(=O)O)CCC[C@]2(C)c2cc(F)c(C(C)C)cc21` (stereo partly drawn) [Wu55, (1R,4aS,E)-6-fluoro-7-isopropyl-9-(methoxyimino)-1,4a-dimethyl-1,2,3,4,4a,9,10,10a-octahydrophenanthrene-1-carboxylic acid], −19.9 mV.
